Laboratory results as given in DBAASP.
Converted amounts (≈) assume the structure as drawn.

Assays:
Assay in all cases: ≥ marks a high value that may be exact or a test limit, other limits are often not marked, values filed in µg/mL are converted to µM
[1] = test system: Acinetobacter baumannii Josh 230
[2] = test system: Acinetobacter baumannii Josh 28
[3] = test system: Enterobacter asburiae St. L P23
[4] = test system: Enterobacter cloacae BB2012-181
[5] = test system: Enterobacter cloacae BB2013-32
[6] = test system: Enterobacter cloacae St. L P23
[7] = test system: Escherichia coli ARLG-1012
[8] = test system: Escherichia coli BB2013-30
Escherichia coli BW25113 = test system: Escherichia coli BW25113
Escherichia coli JW55034 = test system: Escherichia coli JW55034
[9] = test system: Klebsiella aerogenes St. L P63
[10] = test system: Klebsiella pneumoniae BB2009-209
[11] = test system: Klebsiella pneumoniae J3702
[12] = test system: Klebsiella pneumoniae Oschner KP-1
[13] = test system: Pseudomonas aeruginosa ATCC 27853
[14] = test system: Pseudomonas aeruginosa BB2013-100
[15] = test system: Pseudomonas aeruginosa J4228
[16] = test system: Candida albicans NCTC 1467
[17] = test system: Enterococcus faecalis NCTC 12697
[18] = test system: Escherichia coli NCTC 10418
[19] = test system: Staphylococcus aureus ATCC 12493
[20] = test system: Staphylococcus aureus NCTC 10788
[21] = test system: Acinetobacter baumannii CCARM 12035
[22] = test system: Acinetobacter baumannii KCTC 2508
[23] = test system: Bacillus subtilis KCTC 3068
[24] = test system: Escherichia coli CCARM 1229
[25] = test system: Escherichia coli KCTC 1682
[26] = test system: Pseudomonas aeruginosa CCARM 2002
[27] = test system: Pseudomonas aeruginosa KCTC 2004
[28] = test system: Salmonella typhimurium CCARM 8007
[29] = test system: Salmonella typhimurium KCTC 1926
[30] = test system: Staphylococcus aureus CCARM 3126
[31] = test system: Staphylococcus aureus KCTC 1621
[32] = test system: Staphylococcus epidermidis KCTC 1917
Acinetobacter baumannii = test system: Acinetobacter baumannii
[33] = test system: Escherichia coli ATCC 25922
Escherichia coli K88 = test system: Escherichia coli K88
Escherichia coli K99 = test system: Escherichia coli K99
Escherichia coli UB1005 = test system: Escherichia coli UB1005
Escherichia coli = test system: Escherichia coli
Klebsiella pneumoniae = test system: Klebsiella pneumoniae
[34] = test system: Pseudomonas aeruginosa CICC 21625
[35] = test system: Pseudomonas aeruginosa CICC 21630
[36] = test system: Pseudomonas aeruginosa PAO1
Pseudomonas aeruginosa = test system: Pseudomonas aeruginosa
[37] = test system: Salmonella enterica subsp. enterica serovar Pullorum C79-13
[38] = test system: Salmonella enterica subsp. enterica serovar Typhimurium ATCC 14028
[39] = test system: Salmonella enterica subsp. enterica serovar Typhimurium C77-31

Row | Compound | MIC [13] [µM] | MIC [21] [µM] | MIC [22] [µM] | MIC [23] [µM] | MIC [24] [µM] | MIC [25] [µM] | MIC [26] [µM] | MIC [27] [µM] | MIC [28] [µM] | MIC [29] [µM] | MIC [30] [µM] | MIC [31] [µM] | MIC [32] [µM] | MIC [16] [µM] | MIC [17] [µM] | MIC [18] [µM] | MIC [19] [µM] | MIC [20] [µM] | other results
1 | CC[C@H](C)[C@H](NC(=O)[C@H](CCCCN)NC(=O)[C@H](CCCCN)NC(=O)[C@H](C)NC(=O)[C@@H](NC(=O)[C@H](C)NC(=O)[C@H](CC(C)C)NC(=O)[C@H](CC(C)C)NC(=O)[C@H](C)NC(=O)[C@H](CCCCN)NC(=O)[C@H](CC(C)C)NC(=O)[C@H](CC(N)=O)NC(=O)[C@H](CC(C)C)NC(=O)[C@H](CCCN=C(N)N)NC(=O)[C@H](CCCN=C(N)N)NC(=O)[C@H](CCCN=C(N)N)NC(=O)[C@H](CCC(N)=O)NC(=O)[C@H](CCCN=C(N)N)NC(=O)[C@H](CCCN=C(N)N)NC(=O)[C@H](CCCCN)NC(=O)[C@H](CCCCN)NC(=O)[C@@H](N)CCCN=C(N)N)C(C)C)C(=O)N[C@@H](CC(C)C)C(N)=O [RKKRRQRRRLNLKALLAVAKKIL] | 4 (≈ 11.3 µg/mL) |  |  |  |  |  |  |  |  |  |  |  |  | 2 (≈ 5.66 µg/mL) | 8 (≈ 22.6 µg/mL) | 2 (≈ 5.66 µg/mL) | 4 (≈ 11.3 µg/mL) | 4 (≈ 11.3 µg/mL) | 
2 | CC[C@H](C)[C@H](NC(=O)[C@H](CCCCN)NC(=O)[C@H](Cc1c[nH]c2ccccc12)NC(=O)[C@@H](N)CCCN=C(N)N)C(=O)N[C@@H](Cc1ccccc1)C(=O)N[C@@H](CCCCN)C(=O)N[C@@H](CCCCN)C(=O)N[C@@H](C)C(=O)N[C@@H](C)C(=O)N[C@@H](CCCCN)C(=O)N[C@@H](CCCCN)C(=O)NCC(N)=O [RWKIFKKAAKKG] |  | 16 (≈ 23.4 µg/mL) | ≥ 32 | 16 (≈ 23.4 µg/mL) | ≥ 32 | 8 (≈ 11.7 µg/mL) | 16 (≈ 23.4 µg/mL) | 8 (≈ 11.7 µg/mL) | 16 (≈ 23.4 µg/mL) | 16 (≈ 23.4 µg/mL) | 16 (≈ 23.4 µg/mL) | 16 (≈ 23.4 µg/mL) | ≥ 32 |  |  |  |  |  | 
3 | CC(C)[C@H](N)C(=O)N[C@@H](CCCN=C(N)N)C(=O)N1CCC[C@H]1C(=O)N[C@H](C(=O)N[C@H](C(=O)N[C@@H](CCCN=C(N)N)C(=O)N1CCC[C@H]1C(=O)N[C@H](C(=O)N[C@H](C(=O)N[C@@H](CCCN=C(N)N)C(=O)N1CCC[C@H]1C(=O)N[C@H](C(=O)N[C@H](C(=O)N[C@@H](CCCN=C(N)N)C(=O)N1CCC[C@H]1C(=O)N[C@H](C(=O)N[C@H](C(=O)N[C@@H](CCCN=C(N)N)C(=O)N1CCC[C@H]1C(=O)N[C@H](C(=O)N[C@H](C(=O)N[C@@H](CCCN=C(N)N)C(=O)N1CCC[C@H]1C(=O)N[C@H](C(N)=O)C(C)C)C(C)C)C(C)C)C(C)C)C(C)C)C(C)C)C(C)C)C(C)C)C(C)C)C(C)C)C(C)C [VRPVVRPVVRPVVRPVVRPVVRPV] | > 64 |  |  |  |  |  |  |  |  |  |  |  |  |  |  |  |  |  | MIC (Acinetobacter baumannii): 4 µM (≈ 10.9 µg/mL); MIC [33]: 64 µM (≈ 174 µg/mL); MIC (Escherichia coli K88): 8 µM (≈ 21.8 µg/mL); MIC (Escherichia coli K99): 16 µM (≈ 43.6 µg/mL); MIC (Escherichia coli UB1005): ≥ 32 µM; MIC (Escherichia coli): 64 µM (≈ 174 µg/mL); MIC (Klebsiella pneumoniae): > 64 µM; MIC [34]: ≥ 64 µM; MIC [35]: ≥ 64 µM; MIC [36]: > 64 µM; MIC (Pseudomonas aeruginosa): > 64 µM; MIC [37]: 8 µM (≈ 21.8 µg/mL); MIC [38]: 16 µM (≈ 43.6 µg/mL); MIC [39]: ≥ 32 µM

Continued, in another order:

Row | MIC [13] [µM] | MIC [21] [µM] | MIC [22] [µM] | MIC [23] [µM] | MIC [24] [µM] | MIC [25] [µM] | MIC [26] [µM] | MIC [27] [µM] | MIC [28] [µM] | MIC [29] [µM] | MIC [30] [µM] | MIC [31] [µM] | MIC [32] [µM] | Compound | MIC [16] [µM] | MIC [17] [µM] | MIC [18] [µM] | MIC [19] [µM] | MIC [20] [µM] | other results
4 | 2.46 (≈ 4 µg/mL) |  |  |  |  |  |  |  |  |  |  |  |  | CC[C@H](C)[C@H](NC(=O)[C@H](C)N)C(=O)N[C@@H](CCCCN)C(=O)N[C@H](C(=O)N[C@@H](CCCN=C(N)N)C(=O)N[C@@H](CCCCN)C(=O)N[C@@H](CC(C)C)C(=O)N[C@@H](Cc1ccccc1)C(=O)N[C@@H](CCCCN)C(=O)N[C@@H](CCCCN)C(=O)N[C@@H](CC(C)C)C(=O)N[C@@H](CC(C)C)C(=O)N[C@@H](CCCN=C(N)N)C(N)=O)[C@@H](C)CC [AIKIRKLFKKLLR] |  |  |  |  |  | MIC [1]: 9.83 µM (≈ 16 µg/mL); MIC [2]: 2.46 µM (≈ 4 µg/mL); MIC [3]: 19.7 µM (≈ 32 µg/mL); MIC [4]: 19.7 µM (≈ 32 µg/mL); MIC [5]: 19.7 µM (≈ 32 µg/mL); MIC [6]: 19.7 µM (≈ 32 µg/mL); MIC [7]: 4.92 µM (≈ 8 µg/mL); MIC [8]: 9.83 µM (≈ 16 µg/mL); MIC (Escherichia coli BW25113): 4.92 µM (≈ 8 µg/mL); MIC (Escherichia coli JW55034): 4.92 µM (≈ 8 µg/mL); MIC [9]: 19.7 µM (≈ 32 µg/mL); MIC [10]: 19.7 µM (≈ 32 µg/mL); MIC [11]: 19.7 µM (≈ 32 µg/mL); MIC [12]: 19.7 µM (≈ 32 µg/mL); MIC [14]: 19.7 µM (≈ 32 µg/mL); MIC [15]: 4.92 µM (≈ 8 µg/mL)
5 | > 512 |  |  |  |  |  |  |  |  |  |  |  |  | CC[C@H](C)[C@H](NC(=O)CN)C(=O)N[C@@H](CCSC)C(=O)N[C@@H](CC(=O)O)C(=O)N[C@H](C(=O)N[C@H](C(=O)N[C@@H](CCCCN)C(=O)N[C@@H](CC(N)=O)C(=O)N[C@@H](C)C(=O)N[C@@H](C)C(=O)N[C@@H](CCCCN)C(=O)N[C@@H](CC(N)=O)C(=O)N[C@@H](CC(C)C)C(=O)N[C@@H](C)C(=O)NCC(=O)N[C@@H](CCC(N)=O)C(=O)N[C@@H](CC(C)C)C(=O)N[C@@H](CC(C)C)C(=O)N[C@@H](CC(=O)O)C(=O)N[C@@H](CCCCN)C(=O)N[C@@H](CC(C)C)C(=O)N[C@@H](CCCCN)C(=O)O)C(C)C)[C@@H](C)O [GIMDTVKNAAKNLAGQLLDKLK] | ≥ 512 | ≥ 512 | ≥ 128 | ≥ 512 | ≥ 256 | 
6 |  | 16 (≈ 23.6 µg/mL) | ≥ 32 | 16 (≈ 23.6 µg/mL) | ≥ 32 | 8 (≈ 11.8 µg/mL) | ≥ 32 | 8 (≈ 11.8 µg/mL) | 16 (≈ 23.6 µg/mL) | ≥ 32 | ≥ 32 | 8 (≈ 11.8 µg/mL) | ≥ 32 | CC[C@H](C)[C@H](NC(=O)[C@H](CCCCN)NC(=O)[C@H](Cc1c[nH]c2ccccc12)NC(=O)[C@@H](N)CCCN=C(N)N)C(=O)N[C@@H](Cc1ccccc1)C(=O)N[C@@H](CCCCN)C(=O)N[C@@H](CCCCN)C(=O)N[C@@H](C)C(=O)N[C@@H](C)C(=O)N[C@@H](CCCCN)C(=O)N[C@@H](CCCCN)C(=O)N[C@@H](C)C(N)=O [RWKIFKKAAKKA] |  |  |  |  |  | 
